For this experiment, the target named is alpha-N-acyl-glutamine-aminoacylase (Corynebacterium striatum, UniProt Q8GGD4). The experiment in a line: Competitive substrates of alpha-N-acyl-glutamine-aminoacylase: reduction of acid release. In kind it is biochemical. Particulars: for inhibition at 50 µM: tested compound 0.05 mM; for inhibition at 50 µM / inhibition at 100 µM / inhibition at 200 µM / inhibition at 400 µM: 15 min; for inhibition at 100 µM: tested compound 0.1 mM; for inhibition at 200 µM: tested compound 0.2 mM; for inhibition at 400 µM: tested compound 0.4 mM. How it is done: In a sample, the enzyme alpha-N-acyl-glutamine-aminoacylase was used at a concentration of 36 ng/ml in Buffer A (50 mM NaCl; 50 mM NaH2PO4/K2HPO4; pH 7). To each sample, alpha-N-decanoyl-glutamine or alpha-N-(E)-3-methyl-2-hexenoyl-glutamine was added at a final concentration of 0.2 mM as a substrate.
Further, to each sample various competitive substrates are added as shown in Table 1 below at different concentrations as indicated.
The resulting samples with enzyme, substrate and competitive substrate were incubated for 15 minutes, acidified to pH 2 with HCl and extracted with methyl tert butyl ether (MTBE). […] The percentage of the reduction of the release when compared to the positive control is given in Table 1 (equals inhibition of the enzmye).

Setting [1] is: substrate alpha-N-decanoyl-glutamine 0.2 mM, release of decanoic acid vs positive control, read-out: % Inhibition (DA).
[2] abbreviates: substrate alpha-N-(E)-3-methyl-2-hexenoyl-glutamine 0.2 mM, release of (E)-3-methyl-2-hexenoic acid vs positive control, read-out: % Inhibition (MH).

The text below walks through data of patent publication US7388105B2, “Compounds and use to reduce the formation of malodour” (Givaudan S.A., priority 2005, dated 2008).

Structures are written as SMILES. Like-named read-outs stand apart in the source and are kept apart here.

alpha-N-acyl-glutamine-aminoacylase, sequence (Q8GGD4 whole entry): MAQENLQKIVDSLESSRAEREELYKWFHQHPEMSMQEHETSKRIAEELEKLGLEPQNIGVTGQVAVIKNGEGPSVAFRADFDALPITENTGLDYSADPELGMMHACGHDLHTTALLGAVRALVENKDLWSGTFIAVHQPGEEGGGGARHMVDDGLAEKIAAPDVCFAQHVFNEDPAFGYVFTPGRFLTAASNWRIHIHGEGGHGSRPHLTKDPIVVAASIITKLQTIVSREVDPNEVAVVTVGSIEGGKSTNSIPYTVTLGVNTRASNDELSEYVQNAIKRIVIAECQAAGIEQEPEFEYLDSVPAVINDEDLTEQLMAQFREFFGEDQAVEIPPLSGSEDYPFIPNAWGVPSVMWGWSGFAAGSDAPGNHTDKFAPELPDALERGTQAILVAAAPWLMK

Usually inhibition stands for the relative decrease from the control value, in per cent. `CC(C)=CCCC(C)CCOC(=O)NC(CCC(N)=O)C(=O)O` [Compound 4, alpha-N-(3,7-dimethyl-oct-6-enyloxycarbonyl)-L-glutamine]: under setting [1], the inhibition at 50 µM was determined as 15.9%, the inhibition at 100 µM worked out at 13.8% and the inhibition at 200 µM was 34.6%. Further, under setting [2], the inhibition at 100 µM was -0.3%, the inhibition at 200 µM turned out to be 17.1% and the inhibition at 400 µM stood at 16.1%.

Regarding `CC(C)(C)C1CCC(OC(=O)N[C@@H](CCC(N)=O)C(=O)O)CC1` (stereo partly drawn) [Compound 6, alpha-N-(4-tert-Butylcyclohexyloxycarbonyl)-L-glutamine], under setting [1], the inhibition at 50 µM came out at 11.3%, the inhibition at 100 µM stood at 14.3% and the inhibition at 200 µM turned out to be 21.2%. For the same compound, under setting [2], the inhibition at 100 µM is 4.9%, the inhibition at 200 µM stood at 14.8% and the inhibition at 400 µM turned out to be 28.5%.

Take `CC(CCOC(=O)NC(CCC(N)=O)C(=O)O)CCc1ccccc1` [Compound 1, alpha-N-(3-Methyl-5-phenylpentanyloxycarbonyl)-L-glutamine]: the “Inhibition of Nα-acyl-glutamine-aminoacylase (in words)” value (summary of Table 1) was “particularly good inhibitor”. Under setting [1], the inhibition at 50 µM was 38.3%, the inhibition at 100 µM turned out to be 57% and the inhibition at 200 µM came out at 64.4%. For the same compound, under setting [2], the inhibition at 100 µM is 35.5%, the inhibition at 200 µM came out at 58.1% and the inhibition at 400 µM was determined as 78.3%.

Regarding `CC1CCC(C(C)C)C(OC(=O)NC(CCC(N)=O)C(=O)O)C1` [Compound 3, alpha-N-(2-isopropyl-5-methylcyclohexanyloxycarbonyl)-L-glutamine], under setting [2], the inhibition at 100 µM is 7.4%, the inhibition at 200 µM came to 16.5% and the inhibition at 400 µM amounted to 33.9%. In addition, under setting [1], the inhibition at 100 µM is 19.3% and the inhibition at 200 µM came out at 27.2%.

Regarding `CCCCOC(=O)N[C@@H](CCC(N)=O)C(=O)O` [Compound 5, alpha-N-Butyloxycarbonyl-L-glutamine], under setting [1], the inhibition at 50 µM is 6.7%, the inhibition at 100 µM was determined as 6.8% and the inhibition at 200 µM amounted to 10.4%. Under setting [2], the inhibition at 100 µM came to 1.1%, the inhibition at 200 µM was found to be 0% and the inhibition at 400 µM came to 0%.

For the compound `C=CCCCCCCCCC(=O)NC(CCC(N)=O)C(=O)O` [Compound 2, alpha-N-(10-undecenoyl)-L-glutamine], under setting [1], the inhibition at 50 µM came out at 0.9%, the inhibition at 100 µM was found to be 2.2% and the inhibition at 200 µM worked out at 15.6%. Under setting [2], the inhibition at 100 µM is 0%, the inhibition at 200 µM was determined as 2.1% and the inhibition at 400 µM worked out at 24.2%.
